The values that follow come from patent US7468376B2, “Pyrazolopyridine derivates” (Palau Pharma, S.A., priority 2003, dated 2008).

What is called inhibition is the percentage by which the read-out fell short of the control. A lower inhibition goes with little suppression. The term % Inhibition denotes the relative decrease from the control value, in per cent. The low end stands for a weak effect, the high end for a strong effect.

The first experiment deals with TNF-α release induced by LPS in human peripheral blood mononuclear cells. Description: Test 2: Inhibition of TNF-α release induced by LPS in human peripheral blood mononuclear cells. Conditions: Homo sapiens, PBMC, test product at 0.1 μM, LPS 400 ng/mL, 19 h, TNF-α in supernatant by ELISA. Type of experiment: cell-based. On the procedure: Test 2: Inhibition of TNF-α Release Induced by LPS in Human Peripheral Blood Mononuclear Cells
To obtain the mononuclear cells: heparinized venous blood, obtained from healthy volunteers, is diluted with an equal volume of saline phosphate buffer without calcium or magnesium. Aliquots of 30 mL of the mixture are transferred to 50 mL centrifuge tubes containing 15 mL of Ficoll-Hypaque (1.077 g/mL). The tubes are centrifuged at 1200×g for 20 min at room temperature without braking. Approximately two-thirds of the band of platelets lying above the mononuclear cells is removed with a pipette. The mononuclear cells are carefully transferred to a 50 mL tube, washed twice with saline phosphate buffer, centrifuged at 300×g for 10 min at room temperature and resuspended in RPMI supplemented with 1% inactivated fetal bovine serum at a cell density of 2×10^6 cells/mL.
Inhibition of TNF-α release: 100 μL of mononuclear cells (2×10^6 cells/mL) are incubated on 96-well plates with 50 μL of the test product (final concentration, 0.001-10 μM) and 50 μL LPS (E. coli 055B5, Sigma) at a final concentration of 400 ng/mL for 19 h at 37° C. in an atmosphere with CO2 at 5%. The amount of TNF-α released in the supernatant is quantified using a commercial ELISA kit (Biosource International).
(ELISA stands for enzyme-linked immunosorbent assay.)
`Fc1ccc(-c2nc3[nH]ncc3c(-c3ccc(F)cc3)c2-c2ccncc2)cc1` [Example 1, 4,6-Bis(4-fluorophenyl)-5-(4-pyridyl)-1H-pyrazolo[3,4-b]pyridine] showed an inhibition at 0.1 µM of 57.5%.

`Cc1n[nH]c2nc(-c3ccc(F)cc3)c(-c3ccncc3)c(-c3ccc(F)cc3)c12` [Example 4, 4,6-Bis(4-fluorophenyl)-3-methyl-5-(4-pyridyl)-1H-pyrazolo[3,4-b]pyridine]: the inhibition at 0.1 µM was found to be 68.4%. Same read-out and setting: for `CCn1cc2c(-c3ccc(F)cc3)c(-c3ccncc3)c(-c3ccc(F)cc3)nc2n1` [Example 6, 2-Ethyl-4,6-bis(4-fluorophenyl)-5-(4-pyridyl)pyrazolo[3,4-b]pyridine] the value was 81.4%; for `Cn1cc2c(-c3ccc(F)cc3)c(-c3ccncc3)c(-c3ccc(F)cc3)nc2n1` [Example 8, 4,6-Bis(4-fluorophenyl)-2-methyl-5-(4-pyridyl)pyrazolo[3,4-b]pyridine], 66.3%. Turning to `Cn1cc2c(-c3ccccc3)c(-c3ccncc3)c(-c3ccccc3)nc2n1` [Example 22, 2-Methyl-4,6-diphenyl-5-(4-pyridyl)pyrazolo[3,4-b]pyridine], the inhibition at 0.1 µM turned out to be 56.5%. The same measure, in the same setting: the figure for `Fc1ccc(-c2nc3nn(CCN4CCOCC4)cc3c(-c3ccc(F)cc3)c2-c2ccncc2)cc1` [Example 30, 4,6-Bis(4-fluorophenyl)-2-[2-(morpholin-4-yl)ethyl]-5-(4-pyridyl)pyrazolo[3,4-b]pyridine] is 83.6%; for `Fc1ccc(-c2nc3nn(C4CCNCC4)cc3c(-c3ccc(F)cc3)c2-c2ccncc2)cc1` [Example 36, 4,6-Bis(4-fluorophenyl)-2-(4-piperidyl)-5-(4-pyridyl)pyrazolo[3,4-b]pyridine] it is 92%. On the same count and under the same terms, the figure for `Fc1ccc(-c2nc3c(cnn3CC3CCNCC3)c(-c3ccc(F)cc3)c2-c2ccncc2)cc1` [Example 39, 4,6-Bis(4-fluorophenyl)-1-(4-piperidylmethyl)-5-(4-pyridyl)pyrazolo[3,4-b]pyridine] is 51.1%. Turning to `Fc1ccc(-c2nc3nn(CCC4CCNCC4)cc3c(-c3ccc(F)cc3)c2-c2ccncc2)cc1` [Example 43, 4,6-Bis(4-fluorophenyl)-2-[2-(4-piperidyl)ethyl]-5-(4-pyridyl)pyrazolo[3,4-b]pyridine], the inhibition at 0.1 µM was determined as 61.2%.

In turn, `C[S+]([O-])c1ccc(-n2cc3c(-c4ccc(F)cc4)c(-c4ccncc4)c(-c4ccc(F)cc4)nc3n2)cc1` (stereo not drawn) [Example 56, 4,6-Bis(4-fluorophenyl)-2-(4-methylsulfinylphenyl)-5-(4-pyridyl)pyrazolo[3,4-b]pyridine] displayed an inhibition at 0.1 µM of 58.7%. Still for that read-out and setting: for `C[S+]([O-])c1ccc(Cn2cc3c(-c4ccc(F)cc4)c(-c4ccncc4)c(-c4ccc(F)cc4)nc3n2)cc1` (stereo not drawn) [Example 59, 4,6-Bis(4-fluorophenyl)-2-(4-methylsulfinylbenzyl)-5-(4-pyridyl)pyrazolo[3,4-b]pyridine] the value was 60%. In turn, `Fc1ccc(-c2nc3[nH]nc(Cl)c3c(-c3ccc(F)cc3)c2-c2ccncc2)cc1` [Example 63, 3-Chloro-4,6-bis(4-fluorophenyl)-5-(4-pyridyl)-1H-pyrazolo[3,4-b]pyridine] returned an inhibition at 0.1 µM of 53.2%. On the same count and under the same terms, the figure for `NCc1n[nH]c2nc(-c3ccc(F)cc3)c(-c3ccncc3)c(-c3ccc(F)cc3)c12` [Example 68, 3-Aminomethyl-4,6-bis(4-fluorophenyl)-5-(4-pyridyl)-1H-pyrazolo[3,4-b]pyridine] is 50%; for `Oc1ccc(-c2c(-c3ccncc3)c(-c3ccc(F)cc3)nc3[nH]ncc23)cc1` [Example 72, 4-[6-(4-Fluorophenyl)-5-(4-pyridyl)-1H-pyrazolo[3,4-b]pyridin-4-yl]phenol] it is 52.7%; for `CNCCCn1cc2c(-c3ccc(F)cc3)c(-c3ccncc3)c(-c3ccc(F)cc3)nc2n1` [Example 78, N-Methyl-[3-[4,6-bis(4-fluorophenyl)-5-(4-pyridyl)pyrazolo[3,4-b]pyridin-2-yl]propyl]amine] it is 73.3%. For `CN(C)C(=O)Cn1cc2c(-c3ccc(F)cc3)c(-c3ccncc3)c(-c3ccc(F)cc3)nc2n1` [Example 80, 2-[4,6-Bis(4-fluorophenyl)-5-(4-pyridyl)pyrazolo[3,4-b]pyridin-2-yl]-N,N-dimethylacetamide], the inhibition at 0.1 µM was determined as 69.3%. As to `COCCOCCn1cc2c(-c3ccc(F)cc3)c(-c3ccncc3)c(-c3ccc(F)cc3)nc2n1` [Example 82, 4,6-Bis(4-fluorophenyl)-2-[2-(2-methoxyethoxy)ethyl]-5-(4-pyridyl)pyrazolo[3,4-b]pyridine], 0.1 µM produced 59.9% inhibition.

`Fc1ccc(-c2nc3nn(Cc4cccnc4)cc3c(-c3ccc(F)cc3)c2-c2ccncc2)cc1` [Example 102, 4,6-Bis(4-fluorophenyl)-5-(4pyridyl)-2-(3-pyridylmethyl)pyrazolo[3,4-b]pyridine]: at 0.1 µM the inhibition was 67.9%. Same read-out and setting: for `OC1CCN(CCn2cc3c(-c4ccc(F)cc4)c(-c4ccncc4)c(-c4ccc(F)cc4)nc3n2)CC1` [Example 106, 1-[2-[4,6-Bis(4-fluorophenyl)-5-(4-pyridyl)pyrazolo[3,4-b]pyridin-2-yl]ethyl]piperidin-4-ol] the value was 69.3%; for `Fc1ccc(-c2nc3nn(C4CCNCC4)cc3cc2-c2ccncc2)cc1` [Example 121, 6-(4-Fluorophenyl)-2-(4-piperidyl)-5-(4-pyridyl)pyrazolo[3,4-b]pyridine], 52.1%; for `C[C@H](Nc1nccc(-c2cc3cn[nH]c3nc2-c2cccc(C(F)(F)F)c2)n1)c1ccccc1` [Example 128, (1S)-N-(1-Phenylethyl)-[4-[6-[3-(trifluoromethyl)phenyl]-1H-pyrazolo[3,4-b]pyridin-5-yl]pyrimidin-2-yl]amine], 82%. `CC(=O)N1CCN(CCn2cc3c(-c4ccc(F)cc4)c(-c4ccncc4)c(-c4ccc(F)cc4)nc3n2)CC1` [Example 136, 1-[4-[2-[4,6-Bis(4-fluorophenyl)-5-(4-pyridyl)pyrazolo[3,4-b]pyridin-2-yl]ethyl]piperazin-1-yl]ethanone] returned an inhibition at 0.1 µM of 67%.

In turn, `OCCCn1cc2c(-c3ccccc3)c(-c3ccncc3)c(-c3ccccc3)nc2n1` [Example 137, 3-[4,6-Diphenyl-5-(4-pyridyl)pyrazolo[3,4-b]pyridin-2-yl]propan-1-ol] had an inhibition at 0.1 µM of 61.4%. `Cn1cc2c(-c3ccco3)c(-c3ccncc3)c(-c3ccc(F)cc3)nc2n1` [Example 183, 6-(4-Fluorophenyl)-4-(2-furyl)-2-methyl-5-(4-pyridyl)pyrazolo[3,4-b]pyridine] registered an inhibition at 0.1 µM of 66.7%. Compound `Cn1cnc(-c2c(-c3ccncc3)c(-c3ccc(F)cc3)nc3nn(C)cc23)c1` [Example 184, 6-(4-Fluorophenyl)-2-methyl-4-(1-methyl-1H-imidazol-4-yl)-5-(4-pyridyl)pyrazolo[3,4-b]pyridine] had an inhibition at 0.1 µM of 71.2%. The compound `OCCn1cc2c(-c3ccccc3)c(-c3ccncc3)c(-c3ccccc3)nc2n1` [Example 196, 2-[4,6-Diphenyl-5-(4-pyridyl)pyrazolo-[3,4-b]pyridin-2-yl]ethanol] had an inhibition at 0.1 µM of 70.2%. Still for that read-out and setting: the figure for `FC(F)(F)c1cccc(-c2nc3[nH]ncc3cc2-c2ccnc(NCC3CC3)n2)c1` [Example 208, N-Cyclopropylmethyl-[4-[6-[3-(trifluoromethyl)phenyl]-1H-pyrazolo[3,4-b]pyridin-5-yl]pyrimidin-2-yl]amine] is 67.7%. Same read-out and setting: for `C[C@H](Nc1nccc(-c2cc3cn(CCCO)nc3nc2-c2cccc(C(F)(F)F)c2)n1)c1ccccc1` [Example 209, (1S)-3-[5-[2-(1-Phenylethylamino)-pyrimidin-4-yl]-6-(3-trifluoromethylphenyl)pyrazolo[3,4-b]pyridin-2-yl]propan-1-ol] the value was 84.2%.

`Cn1cc2cc(-c3ccnc(NCC4CC4)n3)c(-c3ccc(F)cc3)nc2n1` [Example 210, N-Cyclopropylmethyl-[4-[6-(4-fluorophenyl)-2-methylpyrazolo[3,4-b]pyridin-5-yl]pyrimidin-2-yl]amine]: the inhibition at 0.1 µM came to 57.3%.

The experiment is the same for the next values; noted with them: test product at 0.1 μM, LPS 400 ng/mL, 19 h, TNF-α in supernatant by ELISA.
Regarding “6-(4-Fluorophenyl)-4-methyl-5-(2-methylsulfanylpyrimidin-4-yl)-1H-pyrazolo[3,4-b]pyridine [Example 237]”, the “% Inhibition at 0.1 μM” value came out at 53.4%. On the same count and under the same terms, for `OCCCn1cc2c(-c3ccc(F)cc3)c(-c3ccncc3)c(-c3ccc(F)cc3)nc2n1` [Example 18, 3-[4,6-Bis(4-fluorophenyl)-5-(4-pyridyl)pyrazolo[3,4-b]pirridin-2-yl]propan-1-ol] the value was 82.6%; for `Cc1c2c(-c3ccc(F)cc3)c(-c3ccncc3)c(-c3ccc(F)cc3)nc2nn1C1CCNCC1` [Example 41, 4,6-Bis(4-fluorophenl)-3-methyl-2-(4-piperidyl)-5-(4-pyridyl)pyrazolo[3,4-b]pyridine], 90.6%. Turning to `Cn1cc2c(-c3ccc(Br)s3)c(-c3ccncc3)c(-c3ccc(F)cc3)nc2n1` [Example 188, 4-(5-Bromothien-2-yl)-6-(4-fluoro-phenyl)-2-methyl-5-(4-pyridyl)-1H-pyrazolo[3,4-b]pyridine], the “% Inhibition at 0.1 μM” value stood at 73.2%.
